{"source": "ChEMBL document CHEMBL2375250", "about": "“Efficient synthesis of new (R)-2-amino-1-butanol derived ureas, thioureas and acylthioureas and in vitro evaluation of their antimycobacterial activity” (Eur J Med Chem, 2013)", "key": {"[1]": {"tested_on": "Mycobacterium tuberculosis", "assay": "Antimycobacterial activity against multidrug-resistant Mycobacterium tuberculosis 43 assessed as bacterial growth at 5 uM after 45 days by Lowenstein-Jensen method", "assay_type": "functional"}, "[2]": {"tested_on": "Mycobacterium tuberculosis", "assay": "Antimycobacterial activity against multidrug-resistant Mycobacterium tuberculosis 43 assessed as growth inhibition after 45 days by Lowenstein-Jensen method", "assay_type": "functional"}}}
{"smiles": "CC[C@H](CO)NC(=S)NC(=O)CCc1ccccc1", "values": [{"measurement": "Activity", "setting": "[1]", "value": 100, "unit": "%"}, {"measurement": "MIC", "setting": "[2]", "value": "> 17.8", "unit": "µM"}]}
{"smiles": "CC[C@H](CO)NC(=S)NC(=O)/C=C/c1ccccc1", "values": [{"measurement": "Activity", "setting": "[1]", "value": 100, "unit": "%"}, {"measurement": "MIC", "setting": "[2]", "value": "> 18", "unit": "µM"}]}
{"smiles": "CC[C@H](CO)NC(=S)NC(=O)c1ccc(N(C)C)cc1", "values": [{"measurement": "Activity", "setting": "[1]", "value": 100, "unit": "%"}, {"measurement": "MIC", "setting": "[2]", "value": "> 16.9", "unit": "µM"}]}
{"smiles": "CC[C@H](CO)NC(=S)NC(=O)c1ccccc1O", "values": [{"measurement": "MIC", "setting": "[2]", "value": 7.46, "unit": "µM"}]}
